Measured values: paper PMC9116259, “Discovery of new nicotinamides as apoptotic VEGFR-2 inhibitors: virtual screening, synthesis, anti-proliferative, immunomodulatory, ADMET, toxicity, and molecular dynamic simulation studies” (Journal of Enzyme Inhibition and Medicinal Chemistry, 2022)

Assays:
HCT-116 cells [1] = assay: In vitro anti-proliferative activity, MTT test, HCT-116; format: cell-based; details: Homo sapiens, read-out: In vitro cytotoxicity IC50 HCT-116
Method: (§1) The in vitro anti-proliferative effects of the four synthesised members were assessed against two cancer cell lines namely, hepatocellular carcinoma (HepG-2) and colorectal carcinoma (HCT-116) cell lines, by the standard MTT test[29]. HepG-2 and HCT-116 cell lines were precisely selected relying on their VEGF overexpression. […] The cytotoxicity results were established in Table 7.
(§2) The anti-proliferative activity of the four members was estimated by the MTT protocol as described[38–41] (Supplementary data).

HepG-2 cells = assay: In vitro anti-proliferative activity, MTT test, HepG-2; format: cell-based; details: for IC50: Homo sapiens, HepG2, MTT, HepG-2, read-out: In vitro cytotoxicity IC50 HepG-2
Method: as §1, §2

VEGFR-2 = biological target: T1, VEGFR-2 (Homo sapiens, UniProt P35968); assay: Assessment of VEGFR-2 inhibition in HCT-116 cells; format: cell-based; details: HCT-116 cells treated at concentrations equal to the cytotoxic ones; read-out: VEGFR-2 protein concentration (called VEGFR-2 inhibitory IC50 in text)
T1 construct: in vitro investigation against VEGFR-2 in HCT-116 cells; endogenous in cells; host or cells: HCT-116
T1 sequence (P35968 20-1356): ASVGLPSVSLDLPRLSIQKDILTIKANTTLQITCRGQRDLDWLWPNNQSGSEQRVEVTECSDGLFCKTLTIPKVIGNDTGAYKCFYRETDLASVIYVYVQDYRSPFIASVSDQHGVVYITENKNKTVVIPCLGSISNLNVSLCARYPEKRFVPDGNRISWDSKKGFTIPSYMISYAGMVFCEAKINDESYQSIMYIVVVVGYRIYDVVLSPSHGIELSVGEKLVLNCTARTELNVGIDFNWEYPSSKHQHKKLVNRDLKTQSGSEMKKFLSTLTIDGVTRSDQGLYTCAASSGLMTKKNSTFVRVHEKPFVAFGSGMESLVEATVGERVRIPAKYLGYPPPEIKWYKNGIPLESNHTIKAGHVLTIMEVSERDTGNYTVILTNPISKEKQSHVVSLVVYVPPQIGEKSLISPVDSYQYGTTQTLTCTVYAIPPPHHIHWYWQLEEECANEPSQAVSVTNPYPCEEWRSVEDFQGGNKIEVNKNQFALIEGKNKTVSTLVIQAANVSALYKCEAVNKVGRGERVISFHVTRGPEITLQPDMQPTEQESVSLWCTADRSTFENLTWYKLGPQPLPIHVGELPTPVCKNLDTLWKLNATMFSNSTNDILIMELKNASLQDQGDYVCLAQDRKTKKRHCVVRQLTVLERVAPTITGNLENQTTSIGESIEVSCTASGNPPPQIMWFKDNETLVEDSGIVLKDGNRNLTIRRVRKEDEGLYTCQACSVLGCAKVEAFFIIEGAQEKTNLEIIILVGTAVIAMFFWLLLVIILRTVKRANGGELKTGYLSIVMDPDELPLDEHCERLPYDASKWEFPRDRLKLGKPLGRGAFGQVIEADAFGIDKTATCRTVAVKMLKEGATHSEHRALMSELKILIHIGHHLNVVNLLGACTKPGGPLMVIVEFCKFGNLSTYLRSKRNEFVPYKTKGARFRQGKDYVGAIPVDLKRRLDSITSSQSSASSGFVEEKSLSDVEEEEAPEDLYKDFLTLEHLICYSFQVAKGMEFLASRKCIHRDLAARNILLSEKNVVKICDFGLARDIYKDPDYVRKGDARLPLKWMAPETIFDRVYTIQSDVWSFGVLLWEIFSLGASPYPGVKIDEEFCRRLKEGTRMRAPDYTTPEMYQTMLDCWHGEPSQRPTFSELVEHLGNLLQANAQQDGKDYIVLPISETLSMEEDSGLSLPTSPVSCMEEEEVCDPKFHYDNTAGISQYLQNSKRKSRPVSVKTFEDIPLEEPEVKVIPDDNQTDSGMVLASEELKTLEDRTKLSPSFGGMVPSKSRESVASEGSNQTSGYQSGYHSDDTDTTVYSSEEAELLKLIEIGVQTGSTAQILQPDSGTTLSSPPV
Text: The designed congeners were, also, subject to an in vitro investigation against VEGFR-2 in HCT-116 cells.
The four selected members were further assessed to measure their inhibitory activities against the VEGFR-2 enzyme following the protocol shown in Supplementary data.

TNF-α = assay: In vitro immunomodulatory assay, TNF-α (ELISA) in HCT-116 cells; format: cell-based, human; details: C-6 (21.8 µM), D-1 (3.08 µM), 48 h
Method: (§3) Compounds C-6 and D-1 were further assayed for their immunomodulatory effect on HCT-116 cells. Two immunity-related markers were measured namely, human tumour necrosis factor alpha (TNF-α), and interleukin 6 (IL6). Dexamethasone, a potent inhibitor of both TNF-α and IL6, was used as a positive control.
(§4) The level of TNF-α and IL6 in cell culture supernatants was assessed by the ELISA technique according to the reported procedure[50]^,[51].

IL6 = assay: In vitro immunomodulatory assay, IL6 (ELISA) in HCT-116 cells; format: cell-based; details: C-6 (21.8 µM), D-1 (3.08 µM), 48 h
Method: as §3, §4

BAX = BAX level in treated HCT-116 cells; format: cell-based
Method: (§5) Upregulation of the proapoptotic genes in addition to the downregulation of the anti-apoptotic ones, thus, confirmed the apoptotic behaviour of the designed compound.
(§6) Estimation of caspase-3 levels after treatment of cells with compound D-1 was performed according to the protocol described by M. Andersson et al.[42]. While Bax and Bcl-2 cellular levels were evaluated for D-1 in HCT-116 cells according to the reported protocol[43] (Supplementary data).

Bcl-2 = Bcl-2 level in treated HCT-116 cells; format: cell-based
Method: as §5, §6

caspase-8 = assay: Caspase-8 concentration in treated HCT-116 cells; format: cell-based
HCT-116 cells [2] = assay: Cell cycle analysis by flow cytometry in HCT-116 cells; format: cell-based; details: HCT-116, 3.08 µM for 48 h
Text: Aiming to obtain a further understanding of the mechanism that triggers the anticancer activity of D-1, the cell cycle progression was investigated using flow cytometry in HCT-116 cells.
Based on the protocol referred to by Léonce et al., the flow cytometric analysis for congener D-1 was done[19]^,[44–46] (Supplementary data).

HCT-116 cells [3] = assay: Annexin-V/propidium iodide apoptosis assay in HCT-116 cells; format: cell-based; details: HCT-116, 3.08 µM for 48 h
Method: Since the induction of apoptosis is a key determinant in the drug’s therapeutic outcome, the ability of the best cytotoxic member D-1 to induce apoptosis in colorectal carcinoma (HCT-116) cells was evaluated using Annexin-V/propidium iodide (PI) staining assay. […] The percentage of early and late apoptotic populations elevated from 0.7% and 1.73% in the untreated cells to 4.36% and 17.62% in the D-1 treated cells (Table 10 and Figures 11 and 12).
Annexin‐V‐FITC assay for compound D-1 on HCT-116 cells according to the reported procedure[15]^,[47–49] (Supplementary data).

SMILES | IC50 (HCT-116 cells [1]) [µM] | IC50 (HepG-2 cells) [µM] | IC50 (VEGFR-2) [µM] | % Inhibition of TNF-α (TNF-α) [%] | % Inhibition of IL6 (IL6) [%] | other results
CC(=NNC(=O)c1cccnc1)c1ccc(NC(=O)c2cccnc2)cc1 [Compound A-1, N-(4–(1-(2-Nicotinoylhydrazineylidene)ethyl)phenyl)nicotinamide] | 34.9 ± 0.084 | 18.07 ± 0.052 | 0.0221 |  |  | 
CC(=NNC(=O)c1ccccc1)c1ccc(NC(=O)c2cccnc2)cc1 [Compound B-1, N-(4–(1-(2-Benzoylhydrazineylidene)ethyl)phenyl)nicotinamide] | 19.6 ± 0.052 | 17.4 ± 0.05 | 0.08 |  |  | 
CC(=NO)c1ccc(NC(=O)c2cccnc2)cc1 [Compound C-6, N-(4–(1-(Hydroxyimino)ethyl)phenyl)nicotinamide] | 21.8 ± 0.057 | 15.9 ± 0.045 | 0.0157 | 86.48 | 75.21 | 
CC(=NNc1ccccc1)c1ccc(NC(=O)c2cccnc2)cc1 [Compound D-1, N-(4–(1-(2-Phenylhydrazineylidene)ethyl)phenyl)nicotinamide] | 3.08 ± 0.002 | 4.09 ± 0.005 | 0.0231 | 91.19 | 85.64 | activity against HepG-2, fold more than sorafenib (HepG-2 cells; ratio of IC50 values versus sorafenib): about 1.2 fold; increase of BAX expression level (BAX; HCT-116 cells, versus control): 9.52 fold; BAX (BAX; treated HCT-116 cells): 401.79 pg/mL; decrease of Bcl-2 level to (Bcl-2; HCT-116 cells, versus control): 0.23 fold; Bcl-2 (Bcl-2; treated HCT-116 cells): 1.274 pg/mL; increase of caspase-8 level (caspase-8; HCT-116 cells, versus control): 10.41 fold; Caspase-8 (caspase-8; treated HCT-116 cells): 523.61 pg/mL; %G0-G1 (HCT-116 cells [2]): 41.26%; %G2-M (HCT-116 cells [2]): 30.37%; %Pre-G1 (HCT-116 cells [2]): 23.68%; %S (HCT-116 cells [2]): 28.37%; Apoptosis Early (HCT-116 cells [3]; % given in Figure 11): 4.36%; Apoptosis Late (HCT-116 cells [3]; % given in Figure 11): 17.62%; Apoptosis Total (HCT-116 cells [3]; % given in Figure 11): 23.68%; Necrosis (HCT-116 cells [3]; % printed in Figure 11): 1.7%
C[C@@H]1C[C@H]2[C@@H]3CCC4=CC(=O)C=C[C@]4(C)[C@@]3(F)[C@@H](O)C[C@]2(C)[C@@]1(O)C(=O)CO [Dexamethasone, reference compound] |  |  |  | 82.47 | 93.15 | 
CNC(=O)c1cc(Oc2ccc(NC(=O)Nc3ccc(Cl)c(C(F)(F)F)c3)cc2)ccn1 [Sorafenib, sorafenib, reference compound] | 7.28 ± 0.58 | 5.28 ± 0.21 |  |  |  | 
